Reference: PubChem BioAssay AID248 (DTP/NCI, 2004)
Values joined by “and” are separate entries in the source; they are usually repeats but may differ in a detail not shown here. Equal values may be shown once. Toxic doses and inconclusive results are not listed. Rule as the data show it: active = T/C of 150% or more; inactive = T/C below 125%.

Test system: L1210 leukemia ip in BDF1 mice, survival T/C
Experiment: NCI In Vivo Anticancer Drug Screen. Data for tumor model L1210 Leukemia (intraperitoneal) in B6D2F1 (BDF1) mice
Settings: endpoint: mean survival time, higher = longer survival
Method in brief: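 Transplanted-tumor mice were given test agent; controls received vehicle only. Survival readings from the two groups were divided (treated over control).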

[1] = dose: 100.0 mg/kg/injection, schedule: Q01DX001 (ip), vehicle: saline
[2] = dose: 200.0 mg/kg/injection, schedule: Q01DX001 (ip), vehicle: saline
[3] = dose: 400.0 mg/kg/injection, schedule: Q01DX001 (ip), vehicle: saline
[4] = dose: 50.0 mg/kg/injection, schedule: Q01DX009 (ip), vehicle: saline
[5] = dose: 100.0 mg/kg/injection, schedule: Q04DX003 (ip), vehicle: saline with Tween-80
[6] = dose: 200.0 mg/kg/injection, schedule: Q04DX003 (ip), vehicle: saline with Tween-80
[7] = dose: 100.0 mg/kg/injection, schedule: Q01DX009 (ip), vehicle: saline with Tween-80
[8] = dose: 100.0 mg/kg/injection, schedule: Q04DX003 (ip), vehicle: Klucel (hydroxypropylcellulose) (HPC)
[9] = dose: 200.0 mg/kg/injection, schedule: Q04DX003 (ip), vehicle: Klucel (hydroxypropylcellulose) (HPC)
[10] = dose: 400.0 mg/kg/injection, schedule: Q04DX003 (ip), vehicle: Klucel (hydroxypropylcellulose) (HPC)
[11] = dose: 100.0 mg/kg/injection, schedule: Q04DX002 (ip), vehicle: saline with Tween-80
[12] = dose: 400.0 mg/kg/injection, schedule: Q04DX002 (ip), vehicle: saline with Tween-80
[13] = dose: 200.0 mg/kg/injection, schedule: Q01DX009 (ip), vehicle: Klucel (hydroxypropylcellulose) (HPC)
[14] = dose: 400.0 mg/kg/injection, schedule: Q01DX009 (ip), vehicle: Klucel (hydroxypropylcellulose) (HPC)
[15] = dose: 200.0 mg/kg/injection, schedule: Q01DX009 (ip), vehicle: saline with Tween-80
[16] = dose: 200.0 mg/kg/injection, schedule: Q04DX002 (ip), vehicle: saline with Tween-80
[17] = dose: 400.0 mg/kg/injection, schedule: Q01DX009 (ip), vehicle: saline with Tween-80
[18] = dose: 400.0 mg/kg/injection, schedule: Q04DX003 (ip), vehicle: saline with Tween-80
[19] = dose: 50.0 mg/kg/injection, schedule: Q04DX003 (ip), vehicle: saline
[20] = dose: 100.0 mg/kg/injection, schedule: Q01DX001 (ip), vehicle: carboxymethylcellulose (CMC)
[21] = dose: 200.0 mg/kg/injection, schedule: Q01DX001 (ip), vehicle: carboxymethylcellulose (CMC)
[22] = dose: 400.0 mg/kg/injection, schedule: Q01DX001 (ip), vehicle: carboxymethylcellulose (CMC)

Measured: T/C

CC(=O)OCC(OC(C)=O)C(OC(C)=O)C(Cn1c(=O)cc(C)c2ccc(C)c(C)c21)OC(C)=O (stereo unspecified)
inactive: [1] 88 % of control | [2] 93 % of control | [3] 88 % of control

CC(C)(C)N1CC1
inactive: dose: 25.0 mg/kg/injection, schedule: Q04DX002 (ip), vehicle: saline 103 % of control | [4] 101 % of control | dose: 50.0 mg/kg/injection, schedule: Q04DX002 (ip), vehicle: saline 93 % of control | [1] 106 % of control | dose: 100.0 mg/kg/injection, schedule: Q01DX009 (ip), vehicle: saline 111 % of control | dose: 100.0 mg/kg/injection, schedule: Q04DX002 (ip), vehicle: saline 93 % of control | [2] 106 % of control | dose: 200.0 mg/kg/injection, schedule: Q01DX009 (ip), vehicle: saline 103 % of control

Cc1cc2c(cc1C)C(O)C(N1CCN(C)CC1)CCC2 (stereo unspecified)
inactive: dose: 50.0 mg/kg/injection, schedule: Q04DX003 (ip), vehicle: saline with Tween-80 103 % of control | [5] 97 % of control | [6] 92 % of control

CCOC(=O)c1c[nH]c2cc(OCC3CC3)c(OCC3CC3)cc2c1=O
inactive: [7] 92 % of control

O=C(N/N=C/c1ccc2c(c1)CCC2)c1ccccc1N=Cc1ccc2c(c1)CCC2
inactive: [8] 86 % of control | [9] 96 % of control | [10] 92 % of control

CC(C)P(=O)(CC(=O)O)c1ccccc1 (stereo unspecified)
inactive: [11] 100 % of control | [12] 97 % of control

O=C(Nc1cccc(Cl)c1Cl)Oc1ccc2ccccc2c1
inactive: dose: 100.0 mg/kg/injection, schedule: Q01DX009 (ip), vehicle: Klucel (hydroxypropylcellulose) (HPC) 100 % of control | [13] 105 % of control | [14] 103 % of control

O=[N+]([O-])c1ccc(C(F)(F)F)cc1
inactive: dose: 50.0 mg/kg/injection, schedule: Q01DX009 (ip), vehicle: other 104 % of control | dose: 100.0 mg/kg/injection, schedule: Q01DX009 (ip), vehicle: other 101 % of control

CCOC(=O)NC(C(N)=O)C(N)=O
inactive: [8] 103 % of control | [9] 108 % of control | [10] 106 % of control

CCOc1ccc(OCC)c(NC(=O)Nc2cc(Cl)ccc2OC)c1
inactive: dose: 100.0 mg/kg/injection, schedule: Q01DX001 (ip), vehicle: saline with Tween-80 95 % of control | [7] 111 % of control and 90 % of control | [11] 98 % of control and 91 % of control | [5] 96 % of control | dose: 200.0 mg/kg/injection, schedule: Q01DX001 (ip), vehicle: saline with Tween-80 88 % of control | [15] 101 % of control and 92 % of control | [16] 94 % of control and 103 % of control | [6] 94 % of control | dose: 400.0 mg/kg/injection, schedule: Q01DX001 (ip), vehicle: saline with Tween-80 87 % of control | [17] 89 % of control | [12] 91 % of control and 92 % of control | [18] 91 % of control

N#Cc1ccc(O)c(-c2ccccn2)c1
inactive: [8] 94 % of control | [9] 93 % of control | [10] 94 % of control

CC(=O)NC(C)C
inactive: [5] 93 % of control | [6] 100 % of control | [18] 96 % of control

Cc1ccccc1N1CCN(CCO)CC1
inactive: dose: 12.5 mg/kg/injection, schedule: Q01DX001 (ip), vehicle: saline 105 % of control | dose: 12.5 mg/kg/injection, schedule: Q04DX003 (ip), vehicle: saline 100 % of control | dose: 25.0 mg/kg/injection, schedule: Q01DX001 (ip), vehicle: saline 105 % of control | dose: 25.0 mg/kg/injection, schedule: Q04DX003 (ip), vehicle: saline 110 % of control | dose: 50.0 mg/kg/injection, schedule: Q01DX001 (ip), vehicle: saline 100 % of control | [19] 110 % of control

O=S(=O)(Nc1ccccn1)c1ccccc1
inactive: [13] 103 % of control | [14] 98 % of control

Cc1ccc2c(c1)=N/C(=N\c1nc(O)c(O)[nH]1)N=2
inactive: [5] 97 % of control | [6] 108 % of control | [18] 103 % of control

CC1CCCCN1Cc1ccccc1COC(=O)c1ccc([N+](=O)[O-])cc1Cl (stereo unspecified)
inactive: [11] 94 % of control | [16] 97 % of control

O=C(O)CC[n+]1c(/C=C/c2cc(Br)c(O)c(Br)c2)sc2ccccc21
inactive: dose: 100.0 mg/kg/injection, schedule: Q04DX003 (ip), vehicle: saline sonified 102 % of control | dose: 200.0 mg/kg/injection, schedule: Q04DX003 (ip), vehicle: saline sonified 99 % of control

COC(CCC#N)c1ccccc1 (stereo unspecified)
inactive: [7] 97 % of control | [5] 105 % of control | [15] 100 % of control | [6] 97 % of control | [17] 101 % of control | [18] 102 % of control

Nc1nc(N)c(N=Nc2ccccc2S(=O)(=O)O)c(=O)[nH]1
inactive: dose: 12.5 mg/kg/injection, schedule: Q01DX009 (ip), vehicle: saline 97 % of control | dose: 25.0 mg/kg/injection, schedule: Q01DX009 (ip), vehicle: saline 97 % of control | [4] 100 % of control | [19] 101 % of control | [1] 96 % of control | [2] 98 % of control | [3] 104 % of control

O=[N+]([O-])c1ccc(N=Cc2ccccc2O)c(O)c1
inactive: [20] 95 % of control | [21] 104 % of control | [22] 94 % of control

CCN(CC)c1ccc(Sc2ccc([N+](=O)[O-])cc2[N+](=O)[O-])cc1
inactive: [20] 88 % of control | [21] 92 % of control | [22] 92 % of control

COc1ccc(C(=S)N(C)c2ccccc2)cc1
inactive: dose: 100.0 mg/kg/injection, schedule: Q04DX003 (ip), vehicle: gum acacia 96 % of control | dose: 200.0 mg/kg/injection, schedule: Q04DX003 (ip), vehicle: gum acacia 93 % of control | dose: 400.0 mg/kg/injection, schedule: Q04DX003 (ip), vehicle: gum acacia 95 % of control

Cc1c(CC[n+]2cccc(C(N)=O)c2)[nH]c(=O)[nH]c1=O
inactive: dose: 100.0 mg/kg/injection, schedule: Q04DX003 (ip), vehicle: saline 97 % of control | dose: 200.0 mg/kg/injection, schedule: Q04DX003 (ip), vehicle: saline 101 % of control | dose: 400.0 mg/kg/injection, schedule: Q04DX003 (ip), vehicle: saline 97 % of control

C=C(CCCCCC/C=C\CCCCCCCC)C(=O)O
inactive: dose: 100.0 mg/kg/injection, schedule: Q04DX002 (sc), vehicle: olive oil, sesame oil, peanut oil 103 % of control | dose: 200.0 mg/kg/injection, schedule: Q04DX002 (sc), vehicle: olive oil, sesame oil, peanut oil 103 % of control | dose: 400.0 mg/kg/injection, schedule: Q04DX002 (sc), vehicle: olive oil, sesame oil, peanut oil 103 % of control

CCC(O)C[As](=O)(O)c1cccc(Cl)c1 (stereo unspecified)
inactive: dose: 0.78 mg/kg/injection, schedule: Q04DX002 (ip), vehicle: saline 106 % of control | dose: 0.78 mg/kg/injection, schedule: Q04DX003 (ip), vehicle: saline with Tween-80 92 % of control | dose: 1.56 mg/kg/injection, schedule: Q01DX001 (ip), vehicle: saline 96 % of control | dose: 1.56 mg/kg/injection, schedule: Q04DX002 (ip), vehicle: saline 101 % of control | dose: 1.56 mg/kg/injection, schedule: Q04DX003 (ip), vehicle: saline with Tween-80 94 % of control | dose: 3.13 mg/kg/injection, schedule: Q01DX001 (ip), vehicle: saline 100 % of control | dose: 3.13 mg/kg/injection, schedule: Q04DX002 (ip), vehicle: saline 105 % of control | dose: 3.13 mg/kg/injection, schedule: Q04DX003 (ip), vehicle: saline with Tween-80 95 % of control | dose: 6.25 mg/kg/injection, schedule: Q01DX001 (ip), vehicle: saline with Tween-80 120 % of control | dose: 6.25 mg/kg/injection, schedule: Q01DX001 (ip), vehicle: saline 91 % of control | dose: 6.25 mg/kg/injection, schedule: Q04DX002 (ip), vehicle: saline 97 % of control | dose: 6.25 mg/kg/injection, schedule: Q04DX003 (ip), vehicle: saline with Tween-80 92 % of control
